One assay has as its system MRC5-SV40. The assay can be described thus: CellTiter-Glo growth inhibition, MRC5 cells engineered to express SV40. The assay is classed as cell-based. (In ATP-based viability assays light output follows the ATP content of the culture.)
A further assay deals with T1, C522A-mp97 (Mus musculus, UniProt Q01853, C522A).
T1 construct: made in house
As to the kind of experiment: In vitro ATP hydrolysis, C522A-mp97 mutant. The format is biochemical, murine. How it is done: (§1) Compounds were tested for their ability to inhibit the ATPase activity of purified wild type murine p97 and T532C-Cdc48, a mutant of yeast Cdc48 in which the residue analogous to cysteine 522, threonine 532, was converted to cysteine.
(§2) To determine whether cysteine 522 is necessary for inhibition of p97 by compound 2, a mutant of p97 was constructed in which cysteine 522 was converted to either alanine (C522A-mp97) or threonine (C522T-mp97). The IC50 values of compound 2 were measured the against various enzymes during a 20-minute preincubation (see Table 2). Mutation of cysteine 522 in p97 to either alanine or threonine decreased sensitivity to compound 2 by greater than 100-fold. On the other hand, yeast Cdc48, which normally is quite resistant to compound 2, became nearly 30-fold more sensitive to the compound upon introduction of a cysteine in place of threonine 532.

A further assay addresses T2, C522T-mp97 (Mus musculus, UniProt Q01853, C522T).
T2 construct: made in house
The assay can be described thus: In vitro ATP hydrolysis, C522T-mp97 mutant. The assay is classed as biochemical, murine. The note with it: 20-minute preincubation. How it is done: as §1, §2

For the next assay, the system named is HTC116 WT. As to the kind of experiment: MTT cell growth assay, HTC116 WT. The format is cell-based. The note with it: 48 or 72 h, read-out: Cell line inhibition of growth GI50 HTC116 WT. As to the method:
(§3) To probe further the effect of compound 2 and related compounds 1, 3, 5, 6 and 7, various concentrations of these compounds were added to 13 different cell lines and incubated for 48 or 72 h. An MTT assay was then performed to evaluate cell growth and survival.
For orientation: Tetrazolium assays rely on reduction of a dye to a coloured formazan, in cell work by metabolically active cells.

For another assay, the system named is MDAMB-231. The assay can be described thus: MTT cell growth assay, MDAMB-231. The note with it: Homo sapiens, MDA-MB-231, 48 or 72 h, read-out: Cell line inhibition of growth GI50 MDAMB-231. The format is cell-based. How it is done:
as §3

A further assay relates to 293. The assay can be described thus: MTT cell growth assay, 293. The format is cell-based. The settings on record: Homo sapiens, HEK293, 48 or 72 h, read-out: Cell line inhibition of growth GI50 293. How it is done:
as §3

The target in another assay is cysteine 522 of p97 (Mus musculus, UniProt Q01853). The assay can be described thus: Tandem mass spectrometry of tryptic peptides of inhibited p97. The assay is classed as binding. The note with it: trypsin digest, HPLC. How it is done: To determine if inhibition by compound 2 requires a reactive thiol, the experiment was repeated with p97 except that various nucelophiles were included during the preincubation. […] To evaluate whether compound 2 modifies cysteine 522, inhibited p97 was digested with trypsin and peptides were fractionated by HPLC and analyzed by tandem mass spectrometry.

In the next assay the target is wild type murine p97 (Mus musculus, UniProt Q01853). The assay can be described thus: In vitro ATP hydrolysis (malachite green ATPase assay), wild type murine p97. The assay is classed as biochemical. How it is done: as §1
A further assay deals with PC3. As to the kind of experiment: MTT cell growth assay, PC3. The settings on record: Homo sapiens, PC-3, 48 or 72 h, read-out: Cell line inhibition of growth GI50 PC3. The assay is classed as cell-based. How it is done:
as §3

In another assay the test system is HeLa cells. The assay can be described thus: Accumulation of high molecular weight ubiquitin conjugates (anti-ubiquitin immunoblot), HeLa cells. The format is cell-based. The note with it: 1 h at 37° C. From the text: (§4) To evaluate whether compound 2 can target p97 activity in cells, we sought to determine whether this compound induces accumulation of high molecular weight ubiquitin conjugates, since it is known that RNAi-mediated knockdown of p97 in mammalian cells has this effect (Wojcik, C. et al. J. Cell Sci. (2004) 117, 281-292). As a positive control for this experiment, the proteasome inhibitor MG132 was used. […] The cells were then harvested, lysed, and centrifuged to generate soluble and insoluble fractions. These fractions were then immunoblotted with anti-ubiquitin antibodies to detect accumulation of high molecular weight conjugates. Blots were also probed with anti-PSTAIRE antibodies as a loading control. […] This effect is particularly pronounced in the insoluble fraction.
(§5) To evaluate whether compound 8 can target p97 activity in cells, it was determined whether this compound induces accumulation of high molecular weight ubiquitin conjugates, since it is known that RNAi-mediated knockdown of p97 in mammalian cells has this effect (Wojcik, C. et al. J. Cell Sci. (2004) 117, 281-292). The proteasome inhibitor bortezomib (velcade) was employed as a positive control for this experiment. HeLa (FIG. 25) or RPMI8226 (FIG. 26) cells were treated with Velcade, compound 8, or a combination thereof for 1 h at 37° C. The cells were then harvested and cell lysates were immunoblotted with anti-ubiquitin antibodies to detect accumulation of high molecular weight conjugates. Blots were also probed with anti-PSTAIRE antibodies as a loading control.
(In general: In western blotting, separated proteins are transferred to a membrane and probed.)

The subject of another assay is 13 different cell lines. As to the kind of experiment: MTT cell growth assay, summary across 13 different cell lines. The settings on record: read-out: 50% inhibition of growth (GI50) across the 13 different cell lines; range across 13 cell lines. The assay is classed as cell-based. How it is done: as §3
Data for the assay with MCF-7 cells and HeLa cells is shown in FIG. 21 and FIG. 22, respectively. […] Thus, compound 2 blocks p97-dependent processes in cells and also blocks the proliferation of cancer cell lines, illustrating its potential utility as an anti-proliferative drug to treat cancer.

For assay [1], the system named is HeLa cell line that stably expresses UbG76V-GFP. The assay can be described thus: Accumulation of UbG76V-GFP in HeLa cells (fluorescence microscopy). The assay is classed as cell-based. As to the method:
As a control, the same cells were treated with the proteasome inhibitor MG132. In the latter set of experiments, a HeLa cell line that stably expresses UbG76V-GFP was transfected with either wild type (WT), D1 mutant (E305Q), D2 mutant (E578Q) or E305Q, E578Q double mutant (QQ) murine 97-pcDNA4.1 plasmid (0.05 μg/100 μL) in a 96-well plate. After 23 h, the intensity of UbG76V-GFP signal was measured on a Molecular Devices ImageXpress automated fluorescence microscope. […] The direct accumulation of Ub-G76V-GFP caused by compound 2 at 25 μM is 4-fold less than that caused by MG132 at 2 μM. This is likely due to the fact that only fully folded Ub-G76V-GFP should require p97 for degradation by the proteasome.
As a second test of whether compound 8 can inhibit p97 in vivo, it was evaluated whether it can cause accumulation of the UbG76V-GFP reporter. A HeLa cell line that stably expresses UbG76V-GFP was treated with compound 8 for 1 h at 37° C., and was then evaluated by fluorescence microscopy. As a control, the same cells were treated with the proteasome inhibitor MG132. […] The level of GFP fluorescence was quantified in cells treated with compound 8 at different doses and for different periods of time (FIG. 28).

The test system of the next assay is RPMI8226 cells. The assay can be described thus: Accumulation of high molecular weight ubiquitin conjugates (anti-ubiquitin immunoblot), RPMI8226 cells. The format is cell-based. The note with it: 1 h at 37° C.
Description: as §4, §5

The structures appear in SMILES notation. Values joined by “and” are separate entries in the source; they are usually repeats but may differ in a detail not shown here. Identical values can stand only once.

Sequence of wild type murine p97 (Q01853 whole entry): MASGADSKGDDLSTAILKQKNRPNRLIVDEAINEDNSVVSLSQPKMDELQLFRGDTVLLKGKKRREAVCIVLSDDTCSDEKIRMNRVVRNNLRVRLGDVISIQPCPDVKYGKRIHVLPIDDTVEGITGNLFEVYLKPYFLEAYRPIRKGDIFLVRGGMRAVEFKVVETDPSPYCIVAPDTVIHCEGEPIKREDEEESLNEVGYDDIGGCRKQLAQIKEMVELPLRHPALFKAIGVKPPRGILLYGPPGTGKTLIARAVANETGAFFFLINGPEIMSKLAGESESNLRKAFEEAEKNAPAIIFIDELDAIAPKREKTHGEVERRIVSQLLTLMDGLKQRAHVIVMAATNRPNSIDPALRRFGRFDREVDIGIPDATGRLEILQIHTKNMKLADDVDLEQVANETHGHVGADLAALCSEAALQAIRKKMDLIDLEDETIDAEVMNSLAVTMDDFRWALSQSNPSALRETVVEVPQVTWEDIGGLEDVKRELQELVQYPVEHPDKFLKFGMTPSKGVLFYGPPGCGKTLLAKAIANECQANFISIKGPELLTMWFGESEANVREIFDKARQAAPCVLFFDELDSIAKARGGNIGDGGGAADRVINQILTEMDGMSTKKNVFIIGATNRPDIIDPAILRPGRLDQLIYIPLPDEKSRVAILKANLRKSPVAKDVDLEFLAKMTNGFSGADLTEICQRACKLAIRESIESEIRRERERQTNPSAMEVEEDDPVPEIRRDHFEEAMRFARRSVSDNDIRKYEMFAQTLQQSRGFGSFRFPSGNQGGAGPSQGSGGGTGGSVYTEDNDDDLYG
T1 sequence (Q01853 whole entry C522A): as the sequence (Q01853 whole entry) above, with C522A counted along it
Sequence of cysteine 522 of p97 (Q01853 whole entry): as the sequence (Q01853 whole entry) above
T2 sequence (Q01853 whole entry C522T): as the sequence (Q01853 whole entry) above, with C522T counted along it

By GI50 is commonly meant the concentration giving 50% growth inhibition. As a reminder, the IC50 is the point on the concentration scale where inhibition reaches its midpoint. Consider `C=CC(=O)Nc1ncnc2c1c(-c1ccccc1)nn2C(C)(C)C` [Compound 2], for which the GI50 in the assay on MRC5-SV40 (Homo sapiens, MRC5, 48 h at 37° C., CellTiter-Glo, read-out: Cell line inhibition of growth GI50 MRC5-SV40) was 7300 ± 5500 nM; in the assay with HTC116 WT, 2400 ± 1200 nM; in the assay with MDAMB-231, 1700 ± 300 nM; in the assay with 293 it was 5100 ± 2300 nM; with PC3, 2200 ± 1100 nM; in the assay on 13 different cell lines, 400 to 5100 nM. In the assay with MRC5-SV40 (MRC5-SV40 vs MRC5-WT GI50), the “greater sensitivity of SV40-transformed cells than WT cell line” value is 2 fold. The IC50 at C522A-mp97 (20-minute preincubation) was 110000 ± 33000 nM; on C522T-mp97, 82000 ± 45000 nM; at wild type murine p97 (200 nM p97, 20 min preincubation at 23° C., malachite green, read-out: In vitro ATP Hydrolysis Activity IC50 WT-mP97), 600 nM and 620 nM. Moreover, on C522A-mp97 (C522A or C522T vs wild type p97), the “decrease in sensitivity on mutation of cysteine 522 in p97 to alanine or threonine” value is on record as “greater than 100 fold”. Further, at cysteine 522 of p97, the “covalent modification of cysteine 522” value is “formed a covalent adduct on cysteine 522”. Moreover, the “inhibitory effect on p97 with nucleophiles in the preincubation” value at wild type murine p97 (cysteine or dithiothreitol in the preincubation buffer) is listed as “counteracted”. Also, the “accumulation of high molecular weight ubiquitin conjugates, HeLa cells” value with HeLa cells is “caused accumulation of high molecular weight ubiquitin conjugates”. The “accumulation of UbG76V-GFP” value in [1] (4 hours at 37° C., fluorescence microscopy) was “caused accumulation of UbG76V-GFP”. For the same compound, in [1] (compound at 25 μM vs MG132 at 2 μM), the “direct accumulation of Ub-G76V-GFP, less than that caused by MG132 at 2 μM” value was determined as 4 fold. Besides, the “accumulation of high molecular weight ubiquitin conjugates, RPMI8226 cells” value with RPMI8226 cells is reported as “caused accumulation of high molecular weight ubiquitin conjugates”.

Source of the values: patent publication US9089572B2, “Inhibitors of p97” (California Institute of Technology, priority 2008, dated 2015).
